Reference: patent publication US20240366598A1, “GLUCOSE-DEPENDENT INSULINOTROPIC POLYPEPTIDE RECEPTOR ANTAGONISTS AND USES THEREOF” (Pfizer Inc., priority 2023, published 2024)
Where a name gives a salt, the structure may show the parent alone.

Target: T1, human Glucose-dependent Insulinotropic Polypeptide Receptor (hGIPR) (Homo sapiens, UniProt P48546)
T1 sequence (P48546 22-466): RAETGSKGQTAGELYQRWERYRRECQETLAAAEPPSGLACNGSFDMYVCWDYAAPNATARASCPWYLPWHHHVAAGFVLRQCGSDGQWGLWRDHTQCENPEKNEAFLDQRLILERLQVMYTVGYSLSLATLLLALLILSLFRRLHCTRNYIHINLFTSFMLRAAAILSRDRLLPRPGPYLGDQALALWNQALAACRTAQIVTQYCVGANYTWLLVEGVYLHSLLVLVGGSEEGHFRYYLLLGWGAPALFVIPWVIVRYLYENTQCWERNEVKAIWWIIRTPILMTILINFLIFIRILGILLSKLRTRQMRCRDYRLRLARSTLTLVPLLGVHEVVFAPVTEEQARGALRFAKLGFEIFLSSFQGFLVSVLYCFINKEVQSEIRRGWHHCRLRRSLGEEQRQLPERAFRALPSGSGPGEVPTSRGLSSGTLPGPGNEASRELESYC
Experiment: Functional in vitro GIPR antagonist potency assay (cAMP HTRF, CHO-K1 cells stably expressing hGIPR, hGIP stimulation at about EC80)
Type: cell-based
Settings: geometric mean, hGIP at estimated EC80, examples marked ^2: overall geometric mean of multiple forms (including salts) tested
Procedure, shortened: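 CHO-K1 cells expressing hGIPR (2,000 per well) in HBSS/HEPES/0.1% BSA with 200 μM IBMX were preincubated 2 h at 37 °C with an 11-point compound series (0.5% DMSO). hGIP at about EC80 was then added for 30 min, and cAMP was read by HTRF (665/620 nm). Data were normalized between hGIP alone and full antagonism by a reference antagonist at 80 μM.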

IC50 [nM] | SMILES
2.9 | CC(C)c1ccc(NC(=O)N2CCC[C@@H]2C(=O)Nc2ccc(-c3ccc(C(=O)O)cc3)cc2)cc1F [Example 64, 4′-[(1-{[3-fluoro-4-(propan-2-yl)phenyl]carbamoyl}-D-prolyl)amino][1,1′-biphenyl]-4-carboxylic acid]
52 | CC(C)c1ccc(NC(=O)N2CCC[C@@H]2C(=O)Nc2ccc(-c3ccc(C(=O)O)cc3)cc2)c(Cl)c1 [Example 135, 4′-[(1-{[2-chloro-4-(propan-2-yl)phenyl]carbamoyl}-D-prolyl)amino][1,1′-biphenyl]-4-carboxylic acid]
36 | CC(C)c1ccc(NC(=O)N2CCC[C@@H]2C(=O)Nc2ccc3c(n2)CC[C@@H](C(=O)O)C3)cc1F (single isomer, unassigned) [Example 228, 2-[(1-{[3-fluoro-4-(propan-2-yl)phenyl]carbamoyl}-D-prolyl)amino]-5,6,7,8-tetrahydroquinoline-6-carboxylic acid, trifluoroacetate salt, DIAST-1]
7.2 | Cc1cc(NC(=O)N2CCC[C@@H]2C(=O)Nc2ccc(-c3ccc(C(=O)O)nc3C)cc2)ccc1C(F)(F)F [Example 167, 6-methyl-5-{4-[(1-{[3-methyl-4-(trifluoromethyl)phenyl]carbamoyl}-D-prolyl)amino]phenyl}pyridine-2-carboxylic acid]
2.5 | CC(C)c1ccc(NC(=O)N2CCC[C@@H]2C(=O)Nc2ccc(-c3ccc(C(=O)O)cc3C(C)C)cc2)cc1 [Example 71, 2-(propan-2-yl)-4′-[(1-{[4-(propan-2-yl)phenyl]carbamoyl}-D-prolyl)amino][1,1′-biphenyl]-4-carboxylic acid]
5.7 | CC[C@@H]1CCN(C(=O)Nc2ccc(C(C)C)cc2)[C@H]1C(=O)Nc1ccc(-c2ccc(C(=O)O)cc2)cc1 (single isomer, unassigned) [Example 166, 4′-{[(3R)-3-ethyl-1-{[4-(propan-2-yl)phenyl]carbamoyl}-D-prolyl]amino}[1,1′-biphenyl]-4-carboxylic acid or 4′-{[(3S)-3-ethyl-1-{[4-(propan-2-yl)phenyl]carbamoyl}-L-prolyl]amino}[1,1′-biphenyl]-4-carboxylic acid]
88 | CC(C)c1ccc(NC(=O)N2CCC[C@@H]2C(=O)Nc2ccc(-c3ccnc(C(=O)O)c3)cc2)cc1 [Example 14, ammonium 4-{4-[(1-{[4-(propan-2-yl)phenyl]carbamoyl}-D-prolyl)amino]phenyl}pyridine-2-carboxylate]
92 | O=C(O)c1ccc(-c2ccc(NC(=O)[C@H]3CCCN3C(=O)Nc3cnc(C(F)(F)F)nc3)cc2)cc1 [Example 101, 4′-[(1-{[2-(trifluoromethyl)pyrimidin-5-yl]carbamoyl}-D-prolyl)amino][1,1′-biphenyl]-4-carboxylic acid]
10 | CC(C)c1ccc(NC(=O)N2CCC[C@@H]2C(=O)Nc2ccc(-c3ccc(C(=O)O)c(F)c3)cc2)cc1 [Example 28, 3-Fluoro-4′-[(1-{[4-(propan-2-yl)phenyl]carbamoyl}-D-prolyl)amino][1,1′-biphenyl]-4-carboxylic acid]
15 | CCc1ccc(NC(=O)N2CCC[C@@H]2C(=O)Nc2ccc(-c3ccc(C(=O)O)cc3)cc2)cc1 [Example 118, 4′-({1-[(4-ethylphenyl)carbamoyl]-D-prolyl}amino)[1,1′-biphenyl]-4-carboxylic acid]
3.7 | O=C(O)c1ccc(-c2ccc(NC(=O)[C@H]3CCCN3C(=O)Nc3ccc(Cl)c(C(F)(F)F)c3)cc2)cc1 [Example 110, 4′-[(1-{[4-chloro-3-(trifluoromethyl)phenyl]carbamoyl}-D-prolyl)amino][1,1′-biphenyl]-4-carboxylic acid]

SMILES | IC50 [nM]
O=C(O)c1ccc(-c2ccc(NC(=O)[C@H]3CCCN3C(=O)Nc3ccc(C(F)(F)F)cc3)nc2)cc1 [Example 31, 4-{6-[(1-{[4-(Trifluoromethyl)phenyl]carbamoyl}-D-prolyl)amino]pyridin-3-yl}benzoic acid] | 7.8
